Reference: ChEMBL document CHEMBL4002642, “Design, synthesis and evaluation of antiproliferative activity of melanoma-targeted histone deacetylase inhibitors” (Bioorg Med Chem Lett, 2017)
pIC50: −log10 of the molar value. The source made the active and inactive calls. The rule behind the calls is not given here.

Experiments:
A-375 = assay: Cytotoxicity against human A375 cells assessed as growth inhibition after 72 hrs by MTS assay; type: functional, cell-based; settings: A-375, 72 h
LNCaP = assay: Cytotoxicity against human LNCAP cells assessed as growth inhibition after 72 hrs by MTS assay; type: functional, cell-based
B16-F10 [1] = assay: Cytotoxicity against mouse B16F10 cells assessed as growth inhibition after 72 hrs by MTS assay; type: functional, cell-based; settings: B16-F10, 72 h
[2] = target: T1, Protein deacetylase HDAC6 (Mus musculus) (UniProt Q9Z2V5); assay: Inhibition of HDAC6 in mouse B16F10 cells assessed as accumulation of acetylated tubulin at 20 uM after 24 hrs by Western blot analysis; type: cell-based
T1 sequence (whole entry): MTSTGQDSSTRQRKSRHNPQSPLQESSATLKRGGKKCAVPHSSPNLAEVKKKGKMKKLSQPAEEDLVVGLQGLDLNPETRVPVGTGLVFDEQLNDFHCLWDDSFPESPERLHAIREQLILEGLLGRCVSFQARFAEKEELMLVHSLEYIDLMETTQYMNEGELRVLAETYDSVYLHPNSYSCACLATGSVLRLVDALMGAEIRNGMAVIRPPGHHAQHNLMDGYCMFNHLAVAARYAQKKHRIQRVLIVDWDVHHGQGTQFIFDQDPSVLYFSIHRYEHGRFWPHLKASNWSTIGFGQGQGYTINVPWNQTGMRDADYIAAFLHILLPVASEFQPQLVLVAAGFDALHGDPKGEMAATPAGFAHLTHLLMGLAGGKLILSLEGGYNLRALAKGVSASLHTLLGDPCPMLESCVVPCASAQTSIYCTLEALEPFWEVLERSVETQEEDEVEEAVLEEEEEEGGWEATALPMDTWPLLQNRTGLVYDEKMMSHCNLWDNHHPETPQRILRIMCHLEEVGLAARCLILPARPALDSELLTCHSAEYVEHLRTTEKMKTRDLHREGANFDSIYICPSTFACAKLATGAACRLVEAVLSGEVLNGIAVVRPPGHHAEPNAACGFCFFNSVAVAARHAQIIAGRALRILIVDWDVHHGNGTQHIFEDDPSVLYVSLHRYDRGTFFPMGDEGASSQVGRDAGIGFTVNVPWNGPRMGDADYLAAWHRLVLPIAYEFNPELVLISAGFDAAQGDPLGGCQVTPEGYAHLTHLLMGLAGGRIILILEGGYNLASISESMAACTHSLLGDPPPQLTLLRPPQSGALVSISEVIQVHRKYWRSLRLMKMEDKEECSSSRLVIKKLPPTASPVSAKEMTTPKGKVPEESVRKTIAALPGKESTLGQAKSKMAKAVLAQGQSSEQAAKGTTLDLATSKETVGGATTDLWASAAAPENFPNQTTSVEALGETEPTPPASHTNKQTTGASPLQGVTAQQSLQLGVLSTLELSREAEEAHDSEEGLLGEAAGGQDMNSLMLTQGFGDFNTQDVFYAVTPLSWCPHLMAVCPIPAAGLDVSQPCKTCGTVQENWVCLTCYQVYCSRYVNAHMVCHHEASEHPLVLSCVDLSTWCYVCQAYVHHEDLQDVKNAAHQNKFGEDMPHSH

Histone deacetylase 1 [3] = target: T2, Histone deacetylase 1 (Homo sapiens, UniProt Q13547); assay: Inhibition of HDAC1 (unknown origin)
[4] = target: T3, Protein deacetylase HDAC6 (Homo sapiens, UniProt Q9UBN7); assay: Inhibition of HDAC6 (unknown origin)
T3 sequence (Q9UBN7 whole entry): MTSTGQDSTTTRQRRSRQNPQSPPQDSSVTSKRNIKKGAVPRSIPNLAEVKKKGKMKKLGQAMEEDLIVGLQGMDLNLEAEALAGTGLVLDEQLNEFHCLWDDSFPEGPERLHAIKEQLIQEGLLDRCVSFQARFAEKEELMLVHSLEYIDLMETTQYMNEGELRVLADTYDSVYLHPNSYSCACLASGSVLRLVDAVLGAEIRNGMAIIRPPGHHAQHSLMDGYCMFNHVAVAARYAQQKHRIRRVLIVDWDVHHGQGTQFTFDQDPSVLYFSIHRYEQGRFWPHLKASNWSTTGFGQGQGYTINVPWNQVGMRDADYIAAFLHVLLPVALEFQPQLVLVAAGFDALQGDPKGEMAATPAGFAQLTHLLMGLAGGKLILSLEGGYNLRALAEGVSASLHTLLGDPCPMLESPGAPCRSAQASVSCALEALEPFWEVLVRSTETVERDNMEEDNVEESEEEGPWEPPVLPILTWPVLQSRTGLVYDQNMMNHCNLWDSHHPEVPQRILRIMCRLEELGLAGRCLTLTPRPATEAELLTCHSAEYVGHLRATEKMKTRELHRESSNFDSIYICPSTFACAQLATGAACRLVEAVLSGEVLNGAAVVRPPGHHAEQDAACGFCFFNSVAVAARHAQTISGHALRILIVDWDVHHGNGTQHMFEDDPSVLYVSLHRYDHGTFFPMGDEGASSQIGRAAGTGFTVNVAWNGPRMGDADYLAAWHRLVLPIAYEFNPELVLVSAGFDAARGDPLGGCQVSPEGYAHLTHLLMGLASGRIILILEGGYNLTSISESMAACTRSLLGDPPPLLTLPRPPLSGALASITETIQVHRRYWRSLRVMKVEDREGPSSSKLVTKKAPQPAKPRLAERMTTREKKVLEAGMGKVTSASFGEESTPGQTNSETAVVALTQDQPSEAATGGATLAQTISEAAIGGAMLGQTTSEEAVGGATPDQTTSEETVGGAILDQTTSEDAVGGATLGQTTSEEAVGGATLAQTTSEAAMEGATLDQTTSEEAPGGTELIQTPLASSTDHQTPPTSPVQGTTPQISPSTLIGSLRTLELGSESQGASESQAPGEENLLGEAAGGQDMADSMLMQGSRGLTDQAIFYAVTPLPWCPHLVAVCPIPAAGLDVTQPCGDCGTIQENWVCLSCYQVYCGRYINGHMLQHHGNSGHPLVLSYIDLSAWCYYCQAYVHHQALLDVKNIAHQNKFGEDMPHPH

[5] = target: T1, Protein deacetylase HDAC6 (Mus musculus); assay: Inhibition of HDAC6 in mouse B16F10 cells assessed as accumulation of acetylated tubulin after 24 hrs by Western blot analysis; type: cell-based
B16-F10 [6] = assay: Cytotoxicity against mouse B16F10 cells assessed as growth inhibition at 25 to 50 uM after 72 hrs by MTS assay; type: functional, cell-based
[7] = target: T4, Protein deacetylase HDAC6 (Homo sapiens) (UniProt Q9UBN7); assay: Inhibition of HDAC6 (unknown origin) at 5 uM relative to control
T4 sequence (whole entry): T3 sequence (Q9UBN7 whole entry)

Histone deacetylase 1 [8] = target: T2, Histone deacetylase 1; assay: Inhibition of HDAC1 (unknown origin) at 5 uM relative to control
[9] = target: T5, Histone deacetylase 8 (Homo sapiens) (UniProt Q9BY41); assay: Inhibition of HDAC8 (unknown origin) at 5 uM relative to control
T5 sequence (whole entry): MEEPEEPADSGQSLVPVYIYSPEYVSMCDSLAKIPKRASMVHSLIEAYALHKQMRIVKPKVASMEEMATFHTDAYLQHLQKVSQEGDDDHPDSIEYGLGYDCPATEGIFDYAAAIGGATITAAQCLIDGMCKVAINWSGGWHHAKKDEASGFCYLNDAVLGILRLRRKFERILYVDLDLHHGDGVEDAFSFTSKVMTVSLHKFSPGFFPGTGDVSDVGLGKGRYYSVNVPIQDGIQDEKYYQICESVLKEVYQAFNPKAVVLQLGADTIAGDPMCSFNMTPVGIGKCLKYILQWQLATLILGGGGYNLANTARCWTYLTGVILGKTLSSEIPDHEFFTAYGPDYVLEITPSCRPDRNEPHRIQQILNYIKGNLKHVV

B16-F10 [10] = assay: Cytotoxicity against mouse B16F10 cells assessed as growth inhibition after 72 hrs in presence of verapamil by MTS assay; type: functional, cell-based
[11] = target: T1, Protein deacetylase HDAC6 (Mus musculus); assay: Inhibition of HDAC6 in mouse B16F10 cells assessed as accumulation of acetylated tubulin at 5 to 50 uM after 24 hrs by Western blot analysis; type: cell-based

T2 sequence (Q13547 whole entry): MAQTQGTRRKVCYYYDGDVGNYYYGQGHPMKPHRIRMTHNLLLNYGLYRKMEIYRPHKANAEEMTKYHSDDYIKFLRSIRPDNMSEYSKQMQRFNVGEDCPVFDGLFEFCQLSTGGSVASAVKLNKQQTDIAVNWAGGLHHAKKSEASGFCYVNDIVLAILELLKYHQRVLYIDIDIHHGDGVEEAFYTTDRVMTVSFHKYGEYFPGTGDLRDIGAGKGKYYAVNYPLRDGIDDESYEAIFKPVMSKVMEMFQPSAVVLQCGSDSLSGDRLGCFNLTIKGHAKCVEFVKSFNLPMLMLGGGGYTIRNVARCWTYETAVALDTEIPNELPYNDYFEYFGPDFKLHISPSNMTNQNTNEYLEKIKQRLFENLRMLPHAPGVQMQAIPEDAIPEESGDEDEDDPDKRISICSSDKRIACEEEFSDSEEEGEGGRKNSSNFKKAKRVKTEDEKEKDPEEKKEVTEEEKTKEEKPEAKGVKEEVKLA

inhibition [2]	pIC50 (Histone deacetylase 1 [3])	pIC50 [4]	inhibition [5]	inhibition [7] [%]	inhibition (Histone deacetylase 1 [8]) [%]	inhibition [9] [%]	inhibition [11]	SMILES	pIC50 (A-375)	pIC50 (LNCaP)	pIC50 (B16-F10 [1])	growth inhibition (GI) (B16-F10 [6])	growth inhibition (GI) (B16-F10 [10])
Active								COc1ccc2cc(-c3cn(CCCCCC(=O)NO)nn3)ccc2c1	4.90	5.29	4.98		
	7.92	7.57						CCN(CC)CCNC(=O)c1ccc(-c2cn(CCCCCCCC(=O)NO)nn2)cc1	< 4.00	5.52	4.12		
			Dose-dependent effect	99	100	52		CCN(CC)CCNC(=O)c1ccc(C(=O)ONC(=O)CCCCCn2cc(-c3ccc4cc(OC)ccc4c3)nn2)cc1	4.59	5.19	4.56	Active	
	7.00	6.77						CCN(CC)CCNC(=O)c1ccc(-c2cn(CCCCCC(=O)NO)nn2)cn1	< 4.00	4.98	< 4.00		
	7.77	7.47						CCN(CC)CCNC(=O)c1ccc(-c2cn(CCCCCCC(=O)NO)nn2)cn1	4.33	5.82	4.25		inactive
Active								O=C(CCCCCCC(=O)Nc1ccccc1)NO					
	8.42	7.80					Active	CCN(CC)CCNC(=O)c1ccc(-c2cn(CCCCCCC(=O)NO)nn2)cc1	4.63	5.92	4.47	Active	inactive
